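Results reflect a 48-hour exposure of cells in 96-well plates to compound at five concentrations. At the TGI there is no net growth.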
Tests used:
Experiment in all cases: inhibition of tumour cell growth, NCI panel, 48 h
SF-268 CNS = test system: SF-268 CNS
HCT-15 colon = test system: HCT-15 colon
COLO 205 colon = test system: COLO 205 colon
OVCAR-8 ovarian = test system: OVCAR-8 ovarian
ACHN renal = test system: ACHN renal
OVCAR-4 ovarian = test system: OVCAR-4 ovarian
TK-10 renal = test system: TK-10 renal
LOX IMVI melanoma = test system: LOX IMVI melanoma
EKVX NSCLC = test system: EKVX NSCLC
HCT-116 colon = test system: HCT-116 colon
UO-31 renal = test system: UO-31 renal
SF-295 CNS = test system: SF-295 CNS
UACC-257 melanoma = test system: UACC-257 melanoma
K-562 leukemia = test system: K-562 leukemia
CCRF-CEM leukemia = test system: CCRF-CEM leukemia
SN12C renal = test system: SN12C renal
SK-MEL-2 melanoma = test system: SK-MEL-2 melanoma
SF-539 CNS = test system: SF-539 CNS
SNB-75 CNS = test system: SNB-75 CNS
HL-60(TB) leukemia = test system: HL-60(TB) leukemia
DU-145 prostate = test system: DU-145 prostate
MDA-N = test system: MDA-N
OVCAR-5 ovarian = test system: OVCAR-5 ovarian
SNB-19 CNS = test system: SNB-19 CNS
MDA-MB-231 breast = test system: MDA-MB-231 breast
NCI/ADR-RES ovarian = test system: NCI/ADR-RES ovarian
KM12 colon = test system: KM12 colon
RPMI-8226 leukemia = test system: RPMI-8226 leukemia
HCC-2998 colon = test system: HCC-2998 colon
OVCAR-3 ovarian = test system: OVCAR-3 ovarian
HOP-92 NSCLC = test system: HOP-92 NSCLC
NCI-H460 lung = test system: NCI-H460 lung
SK-MEL-5 melanoma = test system: SK-MEL-5 melanoma
NCI-H23 lung = test system: NCI-H23 lung
IGROV1 ovarian = test system: IGROV1 ovarian
BT-549 breast = test system: BT-549 breast
MDA-MB-435 = test system: MDA-MB-435
786-0 renal = test system: 786-0 renal
M14 melanoma = test system: M14 melanoma
SK-MEL-28 melanoma = test system: SK-MEL-28 melanoma
T-47D breast = test system: T-47D breast
A498 renal = test system: A498 renal
HT29 colon = test system: HT29 colon
HS 578T breast = test system: HS 578T breast
NCI-H226 lung = test system: NCI-H226 lung
CAKI-1 renal = test system: CAKI-1 renal
RXF 393 renal = test system: RXF 393 renal
MALME-3M melanoma = test system: MALME-3M melanoma
HOP-62 NSCLC = test system: HOP-62 NSCLC
SW-620 colon = test system: SW-620 colon
NCI-H522 lung = test system: NCI-H522 lung
UACC-62 melanoma = test system: UACC-62 melanoma
SK-OV-3 ovarian = test system: SK-OV-3 ovarian

Work on C/C(=N\Nc1nc2cc(C(F)(F)F)ccc2s1)c1ccccn1 yielded a TGI (SF-268 CNS) of 3.19 µM, a TGI (HCT-15 colon) of over 38.9 µM and a TGI (COLO 205 colon) of 7.01 µM. For the same molecule, the TGI (OVCAR-8 ovarian) was 1.93 µM, the TGI (ACHN renal) was 5.84 µM and the TGI (OVCAR-4 ovarian) was 32.6 µM. It also gave a TGI (TK-10 renal) of 17.3 µM, a TGI (LOX IMVI melanoma) of 2.48 µM and a TGI (EKVX NSCLC) of 5.55 µM. The TGI (HCT-116 colon) was 2.98 µM, the TGI (UO-31 renal) was 4.89 µM and the TGI (SF-295 CNS) was 5.19 µM. The TGI (UACC-257 melanoma) was over 31.2 µM, the TGI (K-562 leukemia) was over 100 µM and the TGI (CCRF-CEM leukemia) was over 100 µM. The TGI (SN12C renal) was 1.51 µM, the TGI (SK-MEL-2 melanoma) was 4.69 µM and the TGI (SF-539 CNS) was 14.3 µM. The TGI (SNB-75 CNS) was 11.3 µM, the TGI (HL-60(TB) leukemia) was 0.872 µM and the TGI (DU-145 prostate) was 3.98 µM. For the same molecule, the TGI (MDA-N) was 14.7 µM, the TGI (OVCAR-5 ovarian) was 23.4 µM and the TGI (SNB-19 CNS) was 13.3 µM. The TGI (MDA-MB-231 breast) was 0.791 µM, the TGI (NCI/ADR-RES ovarian) was 1.48 µM and the TGI (KM12 colon) was 9.03 µM. It also gave a TGI (RPMI-8226 leukemia) of over 85.2 µM, a TGI (HCC-2998 colon) of 18.3 µM and a TGI (OVCAR-3 ovarian) of 8.85 µM. It also gave a TGI (HOP-92 NSCLC) of 8.15 µM, a TGI (NCI-H460 lung) of 22.3 µM and a TGI (SK-MEL-5 melanoma) of 12.1 µM. It also gave a TGI (NCI-H23 lung) of 6.74 µM, a TGI (IGROV1 ovarian) of 3.99 µM and a TGI (BT-549 breast) of over 40.1 µM. It also gave a TGI (MDA-MB-435) of 7.62 µM, a TGI (786-0 renal) of 5.5 µM and a TGI (M14 melanoma) of 7.14 µM. The TGI (SK-MEL-28 melanoma) was 5.74 µM, the TGI (T-47D breast) was 15.4 µM and the TGI (A498 renal) was 7.61 µM. It also gave a TGI (HT29 colon) of 1.81 µM, a TGI (HS 578T breast) of 14.6 µM and a TGI (NCI-H226 lung) of 3.31 µM. It also gave a TGI (CAKI-1 renal) of 5.14 µM, a TGI (RXF 393 renal) of 12.5 µM and a TGI (MALME-3M melanoma) of 8.9 µM. For the same molecule, the TGI (HOP-62 NSCLC) was 13.7 µM, the TGI (SW-620 colon) was 7.65 µM and the TGI (NCI-H522 lung) was 4.96 µM. For the same molecule, the TGI (UACC-62 melanoma) was 3.38 µM and the TGI (SK-OV-3 ovarian) was 11.3 µM.
